One block for each molecule: values may come before it. Active and inactive are the calls of the source. No cut-off for these calls is given here.
How the values were obtained:
[1] = molecular target: T1, Glycogen synthase kinase-3 beta (Homo sapiens, UniProt P49841)
Description: Inhibition of GSK3beta (unknown origin)

[2] = molecular target: T1, Glycogen synthase kinase-3 beta; assay: biochemical
Description: Inhibition of recombinant N-terminal His6-tagged human GSK3beta H350L mutant expressed in baculovirus infected Sf21 insect cells using polypeptide GS-2 as substrate after 30 mins in presence of ATP by kinase-glo luminescence assay

cells = conditions: Homo sapiens, OVCA433, 48 h
Description: Antiproliferative activity against human OVCA433 cells measured after 48 hrs by MTT assay

A2780 = assay: Antiproliferative activity against human A2780 cells measured after 48 hrs by MTT assay; type: functional, cell-based; conditions: A2780, 48 h
[3] = tested on: Glycogen synthase kinase-3 beta (Homo sapiens), P49841 [UNDEFINED MUTATION]; assay: Non-competitive inhibition of recombinant N-terminal His6-tagged human GSK3beta H350L mutant expressed in baculovirus infected Sf21 insect cells at 6.25 to 12.5 uM in presence of constant levels of ATP and varying GS-2 substrate concentration after 30 mins by double reciprocal plot analysis
Glycogen synthase kinase-3 beta (Homo sapiens), P49841 [UNDEFINED MUTATION], sequence (P49841 whole entry, looked up, stated change not applied): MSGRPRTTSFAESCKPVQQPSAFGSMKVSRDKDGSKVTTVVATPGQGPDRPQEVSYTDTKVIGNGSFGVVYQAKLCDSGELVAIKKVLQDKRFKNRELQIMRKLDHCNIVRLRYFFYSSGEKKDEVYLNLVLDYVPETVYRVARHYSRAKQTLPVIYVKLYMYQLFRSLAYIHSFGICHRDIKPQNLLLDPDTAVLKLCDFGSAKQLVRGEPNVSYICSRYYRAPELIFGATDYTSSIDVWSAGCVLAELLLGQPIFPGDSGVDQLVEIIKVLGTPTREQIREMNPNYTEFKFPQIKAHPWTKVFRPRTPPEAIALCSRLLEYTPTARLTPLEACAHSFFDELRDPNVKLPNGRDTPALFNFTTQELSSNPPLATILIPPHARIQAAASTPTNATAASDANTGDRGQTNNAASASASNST

[4] = tested on: Glycogen synthase kinase-3 beta (Homo sapiens), P49841 [UNDEFINED MUTATION]; assay: Non-competitive inhibition of recombinant N-terminal His6-tagged human GSK3beta H350L mutant expressed in baculovirus infected Sf21 insect cells at 6.25 to 12.5 uM in presence of varying levels of ATP and constant GS-2 substrate concentration after 30 mins by double reciprocal plot analysis
[5] = molecular target: Receptor tyrosine-protein kinase erbB-4 (Homo sapiens) (UniProt Q15303); assay: Inhibition of ErbB4 (unknown origin) using poly (Glu, Tyr) 4:1 as substrate after 1 hr by ELISA relative to control; conditions: concentration not given here
Receptor tyrosine-protein kinase erbB-4 (Homo sapiens), sequence (Q15303 whole entry): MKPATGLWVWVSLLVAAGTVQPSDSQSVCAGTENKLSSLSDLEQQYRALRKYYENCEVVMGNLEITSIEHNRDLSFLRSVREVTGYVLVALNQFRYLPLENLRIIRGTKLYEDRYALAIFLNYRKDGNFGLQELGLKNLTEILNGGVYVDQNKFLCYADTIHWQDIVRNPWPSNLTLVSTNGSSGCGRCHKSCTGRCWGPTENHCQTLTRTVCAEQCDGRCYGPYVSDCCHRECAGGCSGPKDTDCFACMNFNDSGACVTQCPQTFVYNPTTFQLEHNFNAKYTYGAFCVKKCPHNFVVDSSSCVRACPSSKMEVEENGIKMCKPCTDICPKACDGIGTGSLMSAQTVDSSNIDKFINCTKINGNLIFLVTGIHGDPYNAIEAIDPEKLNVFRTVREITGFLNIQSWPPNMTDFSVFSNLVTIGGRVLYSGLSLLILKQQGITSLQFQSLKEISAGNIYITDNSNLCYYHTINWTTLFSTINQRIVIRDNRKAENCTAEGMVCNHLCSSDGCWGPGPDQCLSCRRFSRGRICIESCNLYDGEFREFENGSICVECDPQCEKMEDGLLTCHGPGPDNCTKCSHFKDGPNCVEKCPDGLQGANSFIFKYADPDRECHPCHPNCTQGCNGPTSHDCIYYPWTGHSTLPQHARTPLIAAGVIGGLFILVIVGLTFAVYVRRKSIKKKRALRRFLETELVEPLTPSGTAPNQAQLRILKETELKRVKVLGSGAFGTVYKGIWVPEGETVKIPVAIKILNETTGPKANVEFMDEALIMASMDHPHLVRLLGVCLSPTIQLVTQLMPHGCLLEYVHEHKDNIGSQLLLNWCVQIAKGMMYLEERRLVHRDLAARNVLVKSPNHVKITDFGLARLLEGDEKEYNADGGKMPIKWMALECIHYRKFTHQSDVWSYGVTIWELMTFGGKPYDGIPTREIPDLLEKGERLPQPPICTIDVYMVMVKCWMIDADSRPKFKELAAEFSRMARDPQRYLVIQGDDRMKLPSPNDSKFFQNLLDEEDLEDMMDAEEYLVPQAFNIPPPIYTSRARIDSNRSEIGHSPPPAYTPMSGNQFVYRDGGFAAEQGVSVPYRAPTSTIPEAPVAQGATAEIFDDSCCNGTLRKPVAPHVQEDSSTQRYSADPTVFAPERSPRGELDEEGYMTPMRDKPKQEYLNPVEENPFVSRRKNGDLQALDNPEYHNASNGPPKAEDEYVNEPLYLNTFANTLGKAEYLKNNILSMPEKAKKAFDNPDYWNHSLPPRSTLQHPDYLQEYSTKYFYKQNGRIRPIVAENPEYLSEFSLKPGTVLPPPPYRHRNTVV

[6] = tested on: Glycogen synthase kinase-3 beta (Homo sapiens), P49841 [UNDEFINED MUTATION]; assay: Non-competitive inhibition of recombinant N-terminal His6-tagged human GSK3beta H350L mutant expressed in baculovirus infected Sf21 insect cells at 20 to 50 uM in presence of constant levels of ATP and varying GS-2 substrate concentration after 30 mins by double reciprocal plot analysis
[7] = tested on: Glycogen synthase kinase-3 beta (Homo sapiens), P49841 [UNDEFINED MUTATION]; assay: Non-competitive inhibition of recombinant N-terminal His6-tagged human GSK3beta H350L mutant expressed in baculovirus infected Sf21 insect cells at 20 to 50 uM in presence of varying levels of ATP and constant GS-2 substrate concentration after 30 mins by double reciprocal plot analysis

T1 sequence (P49841 whole entry): as the sequence (P49841 whole entry, looked up, stated change not applied) above

IC50 [1]: 0.005 µM
SMILES: O=C1Cc2cc(Br)ccc2/C1=c1/[nH]c2ccccc2/c1=C\O

SMILES: CCCCCCCCCCCCCC(=O)N1CCC(NC(=O)C2Sc3ccccc3N(CC)C2=O)CC1 (configuration not stated)
IC50 [2]: 27.3 µM
IC50 (cells): 14.9 µM
IC50 (A2780): 13.1 µM

SMILES: CCCCCCCCCC(=O)N1CCC(NC(=O)C2Sc3ccccc3N(CC)C2=O)CC1 (configuration not stated)
IC50 [2]: 74.9 µM
IC50 (cells): 47.7 µM
IC50 (A2780): 23.6 µM

SMILES: CCCCCCCCC(=O)N1CCN(C(=O)C2Sc3ccccc3N(CC)C2=O)CC1 (configuration not stated)
IC50 [2]: > 100 µM
IC50 (cells): 81.8 µM
IC50 (A2780): 34.1 µM

SMILES: CCCCCCCCCCCC(=O)NC1CCN(C(=O)C2Sc3ccccc3N(CC)C2=O)CC1 (configuration not stated)
IC50 [2]: 33.4 µM
IC50 (cells): 28.4 µM
IC50 (A2780): 13 µM

SMILES: CCCCCCCCCC(=O)NC1CCN(C(=O)C2Sc3ccccc3N(CC)C2=O)CC1 (configuration not stated)
IC50 [2]: 68.3 µM
IC50 (cells): 77.4 µM
IC50 (A2780): 27.2 µM

SMILES: CCCCCCCCCCCCCCCC(=O)N1CCN(C(=O)C2Sc3ccccc3N(CC)C2=O)CC1 (configuration not stated)
IC50 [2]: 8.7 µM
inhibition [3]: Active
inhibition [4]: Active
IC50 (cells): 15.4 µM
IC50 (A2780): 13.2 µM

SMILES: CCCCCCCCC(=O)N1CCC(NC(=O)C2Sc3ccccc3N(CC)C2=O)CC1 (configuration not stated)
IC50 [2]: > 100 µM
IC50 (cells): 90.6 µM
IC50 (A2780): 24.7 µM

inhibition [5]: 98.2%
SMILES: CN(C)C/C=C/C(=O)Nc1cc2c(Nc3ccc(F)c(Cl)c3)ncnc2cc1O[C@H]1CCOC1

SMILES: CCN1C(=O)C(C(=O)N2CCC(NC(=O)CCCCCc3ccccc3)CC2)Sc2ccccc21 (configuration not stated)
IC50 [2]: > 100 µM
IC50 (cells): > 100 µM
IC50 (A2780): 36 µM

SMILES: CCCCCCCCCCCCCC(=O)NC1CCN(C(=O)C2Sc3ccccc3N(CC)C2=O)CC1 (configuration not stated)
IC50 [2]: 33.4 µM
IC50 (cells): 26.2 µM
IC50 (A2780): 9.1 µM

SMILES: CCCCCCCCCCC(=O)N1CCC(NC(=O)C2Sc3ccccc3N(CC)C2=O)CC1 (configuration not stated)
IC50 [2]: 44.3 µM
IC50 (cells): 28.2 µM
IC50 (A2780): 16.6 µM

SMILES: CCCCCCCCCCCC(=O)N1CCC(NC(=O)C2Sc3ccccc3N(CC)C2=O)CC1 (configuration not stated)
IC50 [2]: 29.7 µM
IC50 (cells): 26.8 µM
IC50 (A2780): 16.6 µM

SMILES: CCCCCCCCCCCC(=O)N1CCN(C(=O)C2Sc3ccccc3N(CC)C2=O)CC1 (configuration not stated)
IC50 [2]: 23.2 µM
IC50 (cells): 19.5 µM
IC50 (A2780): 16.6 µM

SMILES: CCCCCCCCCCC(=O)NC1CCN(C(=O)C2Sc3ccccc3N(CC)C2=O)CC1 (configuration not stated)
IC50 [2]: 45.9 µM
IC50 (cells): 34.4 µM
IC50 (A2780): 23.4 µM

SMILES: CCCCCCCCCCCCCCCCC(=O)NC1CCN(C(=O)C2Sc3ccccc3N(CC)C2=O)CC1 (configuration not stated)
IC50 [2]: 46.7 µM
IC50 (cells): > 100 µM
IC50 (A2780): 4.7 µM

SMILES: CCCCCCCCCCCCNC(=O)C1Sc2ccccc2N(CC)C1=O (configuration not stated)
IC50 [2]: 22.9 µM
IC50 (cells): > 100 µM
IC50 (A2780): 15.5 µM

SMILES: CCCCCCCCCCCCCCCC(=O)NC1CCN(C(=O)C2Sc3ccccc3N(CC)C2=O)CC1 (configuration not stated)
inhibition [6]: Active
IC50 [2]: 11.7 µM
IC50 (cells): 69.8 µM
inhibition [7]: Active
IC50 (A2780): 3.5 µM

IC50 (cells): 15.3 µM
IC50 (A2780): 20 µM
SMILES: Cn1sc(=O)n(Cc2ccccc2)c1=O

SMILES: CCCCCCCCCCCCCCC(=O)N1CCC(NC(=O)C2Sc3ccccc3N(CC)C2=O)CC1 (configuration not stated)
IC50 [2]: 17.9 µM
IC50 (cells): 17.5 µM
IC50 (A2780): 9 µM

SMILES: CCCCCCCCCCCCCCCC(=O)N1CCC(NC(=O)C2Sc3ccccc3N(CC)C2=O)CC1 (configuration not stated)
IC50 [2]: 18.6 µM
IC50 (cells): 30.4 µM
IC50 (A2780): 11.4 µM

SMILES: CCCCCCCCCCCC(=O)NNC(=O)C1Sc2ccccc2N(CC)C1=O (configuration not stated)
IC50 [2]: 11.9 µM
IC50 (cells): > 100 µM
IC50 (A2780): 40.7 µM

SMILES: CCCCCCCCCC(=O)N1CCN(C(=O)C2Sc3ccccc3N(CC)C2=O)CC1 (configuration not stated)
IC50 [2]: 51.7 µM
IC50 (cells): 89.5 µM
IC50 (A2780): 36 µM

SMILES: CCCCCCCCCCC(=O)N1CCN(C(=O)C2Sc3ccccc3N(CC)C2=O)CC1 (configuration not stated)
IC50 [2]: 27.1 µM
IC50 (cells): 22.9 µM
IC50 (A2780): 21.8 µM

SMILES: CCCCCCCCCCCCCC(=O)N1CCN(C(=O)C2Sc3ccccc3N(CC)C2=O)CC1 (configuration not stated)
IC50 [2]: 18.9 µM
IC50 (cells): 16.9 µM
IC50 (A2780): 16.7 µM

SMILES: CCCCCCCCC(=O)NC1CCN(C(=O)C2Sc3ccccc3N(CC)C2=O)CC1 (configuration not stated)
IC50 [2]: > 100 µM
IC50 (cells): > 100 µM
IC50 (A2780): 33.1 µM

Reference: ChEMBL document CHEMBL4052632 (Eur J Med Chem, 2017)
